Source: ChEMBL document CHEMBL1122199, “Structure-activity relationships in potentially hallucinogenic N,N-dialkyltryptamines substituted in the benzene moiety” (J Med Chem, 1982)
Several values for one entry are separate records, joined by “and”; a condition that tells them apart may be missing. Equal values may be shown once.

Assays:
Rattus norvegicus [1] = test: The behavior disruption data as percent change in response from drug versus saline at dose 1mg/Kg, expressed as L (Late).; type: functional
Rattus norvegicus [2] = test: The behavior disruption data as percent change in response from drug versus saline at dose 1mg/Kg, expressed as E (efficient); type: functional
Rattus norvegicus [3] = test: The behavior disruption data as percent change in response from drug versus saline at dose 2mg/Kg, expressed as L (Late).; type: functional
Rattus norvegicus [4] = test: The behavior disruption data as percent change in response from drug versus saline at dose 2mg/kg, expressed as B/P (burst/premature).; type: functional
Rattus norvegicus [5] = test: The behavior disruption data as percent change in response from drug versus saline at dose 2mg/Kg, expressed as E (efficient); type: functional
Rattus norvegicus [6] = test: The behavior disruption data as percent change in response from drug versus saline at dose 1 mg/kg, expressed as B/P (burst/premature).; type: functional
Rattus norvegicus [7] = test: The behavior disruption data as percent change in response from drug versus saline at dose 1.25 mg/kg, expressed as B/P (burst/premature).; type: functional
Rattus norvegicus [8] = test: The behavior disruption data as percent change in response from drug versus saline at dose 2.5mg/Kg, expressed as E (efficient); type: functional
Rattus norvegicus [9] = test: The behavior disruption data as percent change in response from drug versus saline at dose 2.5mg/Kg, expressed as L (Late).; type: functional
[10] = target: Serotonin (5-HT) receptor; test: Ability to displace [3H]5-HT binding to 5-hydroxytryptamine receptor site using 1 uM LSD as masking ligand; type: protein assay, Cavia porcellus
[11] = Ability to displace [3H]LSD binding to Lysergic acid diethylamide receptor site using 1 uM 5-HT as masking ligand; design: species or system Cavia porcellus
Rattus norvegicus [12] = test: The behavior disruption data as percent change in response from drug versus saline at dose 1.25mg/Kg, expressed as L (Late).; type: functional
Rattus norvegicus [13] = test: The behavior disruption data as percent change in response from drug versus saline at dose 2.5 mg/kg, expressed as B/P (burst/premature).; type: functional
[14] = Hill coefficient of the compound
Rattus norvegicus [15] = test: The behavior disruption data as percent change in response from drug versus saline at dose 1.25mg/Kg, expressed as E (efficient); type: functional
Rattus norvegicus [16] = test: The behavior disruption data as percent change in response from drug versus saline at dose 5mg/Kg, expressed as L (Late).; type: functional
[17] = target: Serotonin (5-HT) receptor; test: Ability to displace [3H]5-HT binding from 5-hydroxytryptamine receptor site using 1 uM LSD as masking ligand; type: protein assay, Cavia porcellus
Rattus norvegicus [18] = test: The behavior disruption data as percent change in response from drug versus saline at dose 10mg/Kg, expressed as L (Late).; type: functional
Rattus norvegicus [19] = test: The behavior disruption data as percent change in response from drug versus saline at dose 10mg/Kg, expressed as E (efficient); type: functional
Rattus norvegicus [20] = test: The behavior disruption data as percent change in response from drug versus saline at dose 10 mg/kg, expressed as B/P (burst/premature).; type: functional
Rattus norvegicus [21] = test: The behavior disruption data as percent change in response from drug versus saline at dose 5mg/Kg, expressed as E (efficient); type: functional
Rattus norvegicus [22] = test: The behavior disruption data as percent change in response from drug versus saline at dose 5 mg/kg, expressed as B/P (burst/premature).; type: functional
Rattus norvegicus [23] = test: The behavior disruption data as percent change in response from drug versus saline at dose 15mg/Kg, expressed as E (efficient); type: functional
Rattus norvegicus [24] = test: The behavior disruption data as percent change in response from drug versus saline at dose 15 mg/kg, expressed as B/P (burst/premature).; type: functional
Rattus norvegicus [25] = test: The behavior disruption data as percent change in response from drug versus saline at dose 15mg/Kg, expressed as L (Late).; type: functional
Rattus norvegicus [26] = test: The behavior disruption data as percent change in response from drug versus saline at dose 4 mg/kg, expressed as B/P (burst/premature).; type: functional
Rattus norvegicus [27] = test: The behavior disruption data as percent change in response from drug versus saline at dose 0.5 mg/Kg, expressed as L (Late).; type: functional
Rattus norvegicus [28] = test: The behavior disruption data as percent change in response from drug versus saline at dose 0.5 mg/kg, expressed as B/P (burst/premature).; type: functional
Rattus norvegicus [29] = test: The behavior disruption data as percent change in response from drug versus saline at dose 4mg/Kg, expressed as L (Late).; type: functional
Rattus norvegicus [30] = test: The behavior disruption data as percent change in response from drug versus saline at dose 0.5 mg/Kg, expressed as E (efficient); type: functional
Rattus norvegicus [31] = test: The behavior disruption data as percent change in response from drug versus saline at dose 4mg/Kg, expressed as E (efficient); type: functional
Rattus norvegicus [32] = test: The behavior disruption data as percent change in response from drug versus saline at dose 0.25mg/Kg, expressed as L (Late).; type: functional
Rattus norvegicus [33] = test: The behavior disruption data as percent change in response from drug versus saline at dose 0.25mg/Kg, expressed as E (efficient); type: functional
Rattus norvegicus [34] = test: The behavior disruption data as percent change in response from drug versus saline at dose 0.25 mg/kg, expressed as B/P (burst/premature).; type: functional
Rattus norvegicus [35] = test: The behavior disruption data as percent change in response from drug versus saline at dose 8mg/Kg, expressed as E (efficient); type: functional
Rattus norvegicus [36] = test: The behavior disruption data as percent change in response from drug versus saline at dose 8 mg/kg, expressed as B/P (burst/premature).; type: functional
Rattus norvegicus [37] = test: The behavior disruption data was measured as percent change in response from drug versus saline at dose 2 mg/kg, activity expressed as L (Late).; type: functional
Rattus norvegicus [38] = test: The behavior disruption data as percent change in response from drug versus saline at dose 8mg/Kg, expressed as L (Late).; type: functional

Row | SMILES | Change in response (Rattus norvegicus [1]) [%] | Change in response (Rattus norvegicus [2]) [%] | Change in response (Rattus norvegicus [3]) [%] | Change in response (Rattus norvegicus [4]) [%] | Change in response (Rattus norvegicus [5]) [%] | Change in response (Rattus norvegicus [6]) [%] | IC50 [10] [M l-1] | IC50 [11] [M l-1] | Hill coefficient [14] | Change in response (Rattus norvegicus [16]) [%] | Change in response (Rattus norvegicus [21]) [%] | Change in response (Rattus norvegicus [22]) [%] | Change in response (Rattus norvegicus [27]) [%] | Change in response (Rattus norvegicus [28]) [%] | Change in response (Rattus norvegicus [30]) [%] | also measured
1 | COc1ccc2[nH]cc(CCN(C)C)c2c1 [MEBUFOTENIN] | 5 | 11 | 9 | 19 | 26 | 6 |  |  |  |  |  |  |  |  |  | 
2 | CC(C)N(CCc1c[nH]c2ccc3c(c12)OCO3)C(C)C |  |  |  |  |  |  | 2.24e-6 | 2.88e-6 | 0.343 |  |  |  |  |  |  | Change in response (Rattus norvegicus [7]): 24%; Change in response (Rattus norvegicus [8]): 49%; Change in response (Rattus norvegicus [9]): 11%; Change in response (Rattus norvegicus [12]): 74%; Change in response (Rattus norvegicus [13]): 38%; Change in response (Rattus norvegicus [15]): 28%
3 | CC(C)N(CCc1c[nH]c2cc3c(cc12)OCO3)C(C)C |  |  |  |  |  |  |  | 0.00001 | 0.642 | 2 | 4 | 2 |  |  |  | Change in response (Rattus norvegicus [7]): 1%; Change in response (Rattus norvegicus [8]): 2%; IC50 [17]: 0.000933 M l-1; Change in response (Rattus norvegicus [18]): 16%; Change in response (Rattus norvegicus [9]): 2%; Change in response (Rattus norvegicus [19]): 45%; Change in response (Rattus norvegicus [12]): 1%; Change in response (Rattus norvegicus [20]): 29%; Change in response (Rattus norvegicus [13]): 0%; Change in response (Rattus norvegicus [15]): 0%
4 | CN(C)CCc1c[nH]c2cc3c(cc12)OCO3 |  |  |  |  |  |  | 0.0000407 | 1.78e-6 | 0.95 and 1.01 | 2 | 11 | 9 |  |  |  | Change in response (Rattus norvegicus [23]): 41%; Change in response (Rattus norvegicus [24]): 22%; Change in response (Rattus norvegicus [18]): 9%; Change in response (Rattus norvegicus [25]): 19%; Change in response (Rattus norvegicus [19]): 26%; Change in response (Rattus norvegicus [20]): 19%
5 | CSc1ccc2c(CCN(C)C)c[nH]c2c1 | 4 | 13 | 19 | 20 | 30 | 8 | 0.0000408 | 7.59e-6 | 0.97 and 0.57 |  |  |  | 4 | 4 | 8 | Change in response (Rattus norvegicus [26]): 34%; Change in response (Rattus norvegicus [29]): 14%; Change in response (Rattus norvegicus [31]): 48%
6 | COc1cccc2[nH]cc(CCN(C)C)c12 | 6 | 25 | 7 | 10 | 27 | 9 |  |  |  |  |  |  | 2 | 0 | 2 | 
7 | CN(C)CCc1c[nH]c2ccc3c(c12)OCO3 | 5 | 10 | 20 | 11 | 31 | 5 |  |  |  |  |  |  | 5 | 0 | 5 | Change in response (Rattus norvegicus [32]): 5%; Change in response (Rattus norvegicus [33]): 3%; Change in response (Rattus norvegicus [34]): 3%
8 | CSc1cccc2[nH]cc(CCN(C(C)C)C(C)C)c12 |  |  |  |  |  |  |  |  | 0.7 | 4 | 5 | 1 |  |  |  | Change in response (Rattus norvegicus [18]): 9%; Change in response (Rattus norvegicus [19]): 32%; Change in response (Rattus norvegicus [20]): 23%
9 | CSc1ccc2[nH]cc(CCN(C)C)c2c1 | 49 | 65 |  |  |  | 16 |  | 1.44e-7 | 0.91 and 0.995 |  |  |  | 7 | 13 | 26 | IC50 [17]: 1e-6 M l-1
10 | COc1ccc2c(CCN(C)C)c[nH]c2c1 |  |  |  |  |  |  |  |  |  | 21 | 50 | 29 |  |  |  | Change in response (Rattus norvegicus [7]): 25%; Change in response (Rattus norvegicus [8]): 34%; Change in response (Rattus norvegicus [9]): 8%; Change in response (Rattus norvegicus [12]): 5%; Change in response (Rattus norvegicus [13]): 26%; Change in response (Rattus norvegicus [15]): 21%
11 | CSc1cccc2[nH]cc(CCN(C)C)c12 | 1 | 1 |  | 8 | 11 | 0 | 0.000151 | 0.0000125 | 0.75 and 1.01 |  |  |  |  |  |  | Change in response (Rattus norvegicus [35]): 52%; Change in response (Rattus norvegicus [36]): 36%; Change in response (Rattus norvegicus [26]): 20%; Change in response (Rattus norvegicus [37]): 3%; Change in response (Rattus norvegicus [29]): 6%; Change in response (Rattus norvegicus [38]): 15%; Change in response (Rattus norvegicus [31]): 27%
